Where two headings read alike, the source gives them in different places. Values belong to the molecule of their own block, whether it stands above or below them.
What was measured:
[1] = system: resistant gram-negative MBL-based bacteria; assay: MICx: lowest adjuvant concentration giving carbapenem MIC ≤2 mg/L; assay type: cell-based; settings: for adjuvant effect at an inhibitor concentration of 25 mg/L: meropenem, K34-7 and K66-45
[2] = zinc-binding ability; known/prior art value; cited from earlier work
K. pneumoniae K66-45 = assay type: cell-based; settings: inhibitor 25 mg/L
Procedure: After plating and grown overnight at 37° C., only single colonies, ignoring any touching the edges of the plate, were counted.
10^9 CFU K66-45 (Mueller-Hinton broth, no selection) was plated and grown overnight, 37° C. Only single colonies, ignoring any touching the edges of the plate, were counted.

VIM-2 = VIM-2 (Escherichia coli, UniProt Q5U7L7); assay type: biochemical; settings: purified VIM-2, PD-10 column; EDTA at 100 μM
Procedure: The eluent used was Chelex-treated HEPES 50 mM buffer, pH 7.5. […] In all experiments, 16 aliquots of 250 μL were taken from the PD-10 column runsout and enzyme activity was analysed. Enzyme activity was measured by adding Nitrocefin as a reporter substrate (final concentration of 50 μM).
To investigate if more extreme time-dependent and concentration-dependent conditions could restore enzyme activity, aliquots having final concentrations of 30 nM column-treated enzyme and 1000 μM Zn^2+ on ice and at room temperature over prolonged time.

[3] = system: Klebsiella pneumoniae strain 50752501 harbouring NDM-1; assay: In vivo infection study in neutropenic mice; design: species or system Klebsiella pneumoniae; host NMRI mice; settings: meropenem alone 33 mg/kg
Procedure: The purpose of this study was to investigate the synergy between a typical example of the present invention and a state of art carbapenem in a clinically relevant multiresistant Gram-negative bacterial strain harboring a metallo-β-lactamase in the treatment of live mice infected with the bacterial strain.
The mice were rendered neutropenic by injecting 0.5 ml cyclophosphamide solution intraperitoneally 4 days (approximately 200 mg/kg) and 1 day (approximately 100 mg/kg) prior to inoculation.
Fresh overnight colonies from a 5% Horse Blood Agar plate were suspended and diluted in sterile saline to approximately and 10^7 CFU/ml. Mice were inoculated intraperitoneally with 0.5 ml of the suspension. Approximately ½ hr prior to inoculation, mice were treated orally with 45 μl neurophen (20 mg ibuprofen/ml corresponding to approximately 30 mg/kg) as a pain relief.
Mice were treated subcutaneously in the neck region with.
Colony counts were determined from blood and peritoneal fluid at 1 and 5 hrs post inoculation. […] The mice were sacrificed immediately after blood sampling and a total of 2 ml sterile saline was injected i.p. and the abdomen gently massaged before it was opened and fluid sampled with a pipette. Each sample was then 10 fold serial diluted in saline and 20-μl spots, ranging from undiluted to a 10^6 dilution, were applied on agar plates in duplicates. […] All agar plates were incubated 18-22 hrs at 35° C. in ambient air.

[4] = system: P. aeruginosa K34-7 (VIM-2); assay: Microbroth dilution MIC of carbapenem with/without inhibitor; assay type: cell-based
Procedure: (§1) • Plate bacterial strain(s) on appropriate media: • Gram-negative bacteria with ESBLs or carbapenemases: green agar plates with 100 mg/L ampicillin • Gram-negative bacteria without β-lactamases: green agar plates • Gram-positive bacteria (Staphylococci and Enterococci): blood agar plates • Incubate o.n. at 37° C.
(§2) (Should be used within 15 min of preparation). • Dilute the 0.5 McFarland suspension 1:100 into MH broth. […] Plate 10 μl of the dilution on MH agar plates (×2). Incubate o.n. at 37° C., count the colonies and calculate the final CFU/ml inoculum in the plate by multiplying the average number of colonies with 10000 and divide by 2. The final inoculum should be between 3-7×10^5 CFU/ml. • Add 50 μl of the prepared bacterial suspension to each well in the microtiter plate except negative growth control.
(§3) • Calculate the desired concentration-range and volume of the compounds/antibiotics in the assay. […] Dilute the stock solution in MH broth. Make subsequent 2-fold dilutions in MH broth of the desired concentrations if a concentration range is to be tested (remember the extra dilution factor in the assay plate). Always include extra volume for pipetting. Take into consideration stock solutions that are made in buffers that have an effect on bacterial growth (e.g. DMSO).

[5] = system: K. pneumoniae K66-45 (NDM-1); assay: as above; assay type: cell-based
Procedure: as §1, §2, §3

[6] = system: resistant clinical isolate of Klebsiella pneumoniae harboring NDM-1; assay: Time-kill study with meropenem; assay type: cell-based; settings: 4 mg/L meropenem alone; grows beyond starting CFU count
Procedure: Mueller-Hinton broth (MHB) was warmed from fridge temperature cold. […] A sample of Example 26 was dissolved in DMSO.
The 96-well plates were prepared using a multi-channel pipette, adding […] PBS to columns 2-9, or the required number of dilutions needed in the experiment. Each Inoculum was prepared by picking a single colony from the fresh plate that was disperged into 1 mL MHB, the loop was agitated to ensure all the colony comes off the loop. The tube was Vortex mixed, and a 100 μL aliquot was taken from the tube into 9.9 mL of MHB into the media bottle. […] The procedure was repeated for as many samples needed in the study. Aliquots of 5 mL inoculum were transferred to as many media bottles as needed, e.g. 4 mg/L MEM, 4 mg/L MEM+50 μM test substance, 4 mg/L MEM+100 μM test substance. Then […] aliquots were taken from each culture and added to Column 1 on the 96 well plate, e.g. culture 1: 50 μl into A1, […] into B1 etc. for time point 0 h. Then […] MEM was added into each bottle, followed by the required amount of test substance. The bottles were mixed gently to avoid formation of bubbles, and incubated in a secondary container at 37° C. at 180 rpm. Finally, serial dilutions were performed using multi-channel pipette taking 30 μL for column 1, adding to column 2, mixing well, repeating from column 2 to 3 with clean pipette tips.

SMILES: COC(=O)[C@@H](C)NC(=O)[C@@H](C)NC(=O)Cn1cc(CN(Cc2ccccn2)Cc2ccccn2)nn1 [Example 194, Methyl (2-(4-((bis(pyridin-2-ylmethyl)amino)methyl)1H-1,2,3-triazol-1-yl)acetyl)-D-alanyl-D-alaninate, reference compound]
adjuvant concentration range at which efficient [1]: 100 to 150 µM

SMILES: CN(C[C@H](O)[C@@H](O)[C@H](O)[C@H](O)CO)C(=O)c1ccc(CN(Cc2ccccc2)Cc2ccccn2)nc1 [Example 187, 6-((benzyl(pyridin-2-ylmethyl)amino)methyl)-N-methyl-N-((2S,3R,4R,5R)-2,3,4,5,6-pentahydroxyhexyl)nicotinamide]
adjuvant effect at an inhibitor concentration of 25 mg/L [1]: completely abolishes the adjuvant effect

SMILES: c1ccc(CN(Cc2ccccn2)Cc2ccccn2)nc1 [TPA, N,N,N-tris(2-pyridylmethyl) amine]
pKd [2]: about 12

SMILES: CN(C[C@H](O)[C@@H](O)[C@H](O)[C@H](O)CO)C(=O)c1ccc(CN(Cc2ccccc2)Cc2ccccc2)nc1 [Example 185, 6-((dibenzylamino)methyl)-N-methyl-N-((2S,3R,4R,5R)-2,3,4,5,6-pentahydroxyhexyl)nicotinamide]
adjuvant effect at an inhibitor concentration of 25 mg/L [1]: completely abolishes the adjuvant effect

SMILES: COC(=O)c1ccc(CN(Cc2ccccn2)Cc2ccccn2)s1 [Example 180, Methyl 5-((bis(pyridin-2-ylmethyl)amino)methyl)thiophene-2-carboxylate]
adjuvant effect at an inhibitor concentration of 25 mg/L [1]: completely abolishes the adjuvant effect

SMILES: CN(C[C@H](O)[C@@H](O)[C@H](O)[C@H](O)CO)C(=O)Cc1ccc(NC(=O)CN(CCN(Cc2ccccn2)Cc2ccccn2)Cc2ccccn2)cc1 [Example 25, 2-(4-(2-((2-(bis(pyridin-2-ylmethyl)amino)ethyl)(pyridin-2-ylmethyl)amino)acetamido)phenyl)-N-methyl-N-(2,3,4,5,6-pentahydroxyhexyl)acetamide]
RF - no of colonies (K. pneumoniae K66-45; MEM 2 mg/L): nc (n.c. = no colonies)
RF - no of colonies (K. pneumoniae K66-45; MEM 4 mg/L): nc (n.c. = no colonies)
RF - no of colonies (K. pneumoniae K66-45; MEM 8 mg/L): nc (n.c. = no colonies)

SMILES: O=C(O)CN(CCN(CC(=O)O)CC(=O)O)CC(=O)O [EDTA, ethylenediaminetetra-acetic acid, reference compound]
irreversibility of VIM-2 inhibition (VIM-2): did not inhibit VIM-2 irreversibly

SMILES: O=C(Cc1ccc(-n2cc(CN(Cc3ccccn3)Cc3ccccn3)nn2)cc1)N[C@@H](Cc1cccc(C(=O)O)c1)B(O)O [Example 157, (R)-3-(2-(2-(4-(4-((bis(pyridin-2-ylmethyl)amino)methyl)-1H-1,2,3-triazol-1-yl)phenyl)acetamido)-2-boronoethyl)benzoic acid]
adjuvant effect at an inhibitor concentration of 25 mg/L [1]: less activity as an adjuvant

SMILES: C[C@@H](O)[C@H]1C(=O)N2C(C(=O)O)=C(S[C@@H]3CN[C@H](C(=O)N(C)C)C3)[C@H](C)[C@H]12 [meropenem, reference compound]
lower CFU levels compared to vehicle treatment ([3]; blood): 2.5 log10
lower CFU levels compared to vehicle treatment ([3]; peritoneal fluid): 2.2 log10
MIC value in K34-7 (MIC of carbapenem) ([4]; carbapenem alone, P. aeruginosa VIM-2): 32 to 64 µg/mL
MIC ([5]; Klebsiella pneumoniae, read-out: MIC of MEM in the absence of Example 26, K. pneumoniae K66-45): > 32 µg/mL
MIC Value in K66-45 (MIC of carbapenem) ([5]; carbapenem alone, K. pneumoniae NDM-1): 32 to 64 µg/mL
time after which CFU starts to increase [6]: about 5 hours

SMILES: O=C(NCCc1ccc(-n2cc(CN(Cc3ccccn3)Cc3ccccn3)nn2)cc1)[C@H]1O[C@H](O)[C@H](O)[C@@H](O)[C@H]1O [Example 101, (2S,3R,4S,5R,6S)—N-(4-(4-((Bis(pyridin-2-ylmethyl)amino)methyl)-1H-1,2,3-triazol-1-yl)phenethyl)-3,4,5,6-tetrahydroxytetrahydro-2H-pyran-2-carboxamide]
adjuvant concentration range at which efficient [1]: 100 to 150 µM
adjuvant effect at an inhibitor concentration of 25 mg/L [1]: less activity as an adjuvant

SMILES: CN(C[C@H](O)[C@@H](O)[C@H](O)[C@H](O)CO)C(=O)c1ccc(CN(Cc2ccccn2)Cc2ccccn2)s1 [Example 182, 5-((bis(pyridin-2-ylmethyl)amino)methyl)-N-methyl-N-((2S,3R,4R,5R)-2,3,4,5,6-pentahydroxyhexyl)thiophene-2-carboxamide]
adjuvant effect at an inhibitor concentration of 25 mg/L [1]: completely abolishes the adjuvant effect

MIC of meropenem ([4]; P. aeruginosa K34-7 (VIM-2), inhibitor 50 μM): 1
SMILES: OC1O[C@H](Cn2cc(CN(CCN(Cc3ccccn3)Cc3ccccn3)Cc3ccccn3)nn2)[C@H](O)[C@H](O)[C@H]1O (stereo partly shown) [Example 91]

SMILES: c1ccc(CN(CCN(Cc2ccccn2)Cc2ccccn2)Cc2ccccn2)nc1 [TPEN, N,N,N′,N′-tetrakis(2-pyridylmethyl) ethylenediamine, reference compound]
irreversibility of VIM-2 inhibition (VIM-2): irreversibly inhibited

SMILES: c1ccc(CNCc2ccccn2)nc1 [DPA, dipicoylamine]
pKd [2]: < 8
